Test results published in publication PMC8566089 (Bioorganic Chemistry, 2021).
Like-named read-outs stand apart in the source and are kept apart here.

Key:
[1] = tested on: MCF7 (breast) cancer cell line; conditions: read-out: IC50 ± SE, MCF7; cited from earlier work
[2] = tested on: HCT116 (colon) cancer cell line; conditions: read-out: IC50 ± SE, HCT116; cited from earlier work
[3] = tested on: A431 (squamous skin) cancer cell line; assay: MTT antiproliferative assay, A431; type: cell-based; conditions: for IC50: Homo sapiens, A-431, 72 h, read-out: IC50 ± SE, A431; for SI (selectivity index), A431: IC50 of RPE1 relative to that of A431
[4] = tested on: MCF7 (breast) cancer cell line; assay: MTT antiproliferative assay, MCF7; type: cell-based; conditions: for IC50: Homo sapiens, MCF7, 72 h, read-out: IC50 ± SE, MCF7; for SI (selectivity index), MCF7: IC50 of RPE1 relative to that of MCF7
[5] = tested on: HCT116 (colon) cancer cell line; assay: MTT antiproliferative assay, HCT116; type: cell-based; conditions: for IC50: Homo sapiens, HCT-116, 72 h, read-out: IC50 ± SE, HCT116; for SI (selectivity index), HCT116: IC50 of RPE1 relative to that of HCT116
[6] = tested on: RPE1 (normal human immortalized retinal pigment epithelial cell line); assay: MTT assay against normal RPE1 cells; type: cell-based; conditions: RPE-1, read-out: IC50 ± SE, RPE1
[7] = tested on: HCT116 (colon cancer cell line); assay: PI-flow cytometry cell cycle analysis; type: cell-based; conditions: for phase of cell cycle arrest: PI-flow cytometry; for DNA content (%) G0-G1 / DNA content (%) G2/M / DNA content (%) Pre-G1 / DNA content (%) S: at MTT-IC50 of the agent
[8] = tested on: HCT116 (colon cancer cell line); assay: Annexin V-FITC apoptosis/necrosis study; type: cell-based; conditions: at MTT-IC50 of the agent
[9] = target: T1, VEGFR-2 (Homo sapiens, UniProt P35968); assay: VEGFR-2 Western blot in MCF7; type: cell-based; conditions: for VEGFR2 MCF7 % Inhibition: Western blot at MTT-IC50; for VEGFR2 MCF7 RQ (relative quantification): Western blot at MTT-IC50, control RQ 3.725
T1 sequence (P35968 20-1356): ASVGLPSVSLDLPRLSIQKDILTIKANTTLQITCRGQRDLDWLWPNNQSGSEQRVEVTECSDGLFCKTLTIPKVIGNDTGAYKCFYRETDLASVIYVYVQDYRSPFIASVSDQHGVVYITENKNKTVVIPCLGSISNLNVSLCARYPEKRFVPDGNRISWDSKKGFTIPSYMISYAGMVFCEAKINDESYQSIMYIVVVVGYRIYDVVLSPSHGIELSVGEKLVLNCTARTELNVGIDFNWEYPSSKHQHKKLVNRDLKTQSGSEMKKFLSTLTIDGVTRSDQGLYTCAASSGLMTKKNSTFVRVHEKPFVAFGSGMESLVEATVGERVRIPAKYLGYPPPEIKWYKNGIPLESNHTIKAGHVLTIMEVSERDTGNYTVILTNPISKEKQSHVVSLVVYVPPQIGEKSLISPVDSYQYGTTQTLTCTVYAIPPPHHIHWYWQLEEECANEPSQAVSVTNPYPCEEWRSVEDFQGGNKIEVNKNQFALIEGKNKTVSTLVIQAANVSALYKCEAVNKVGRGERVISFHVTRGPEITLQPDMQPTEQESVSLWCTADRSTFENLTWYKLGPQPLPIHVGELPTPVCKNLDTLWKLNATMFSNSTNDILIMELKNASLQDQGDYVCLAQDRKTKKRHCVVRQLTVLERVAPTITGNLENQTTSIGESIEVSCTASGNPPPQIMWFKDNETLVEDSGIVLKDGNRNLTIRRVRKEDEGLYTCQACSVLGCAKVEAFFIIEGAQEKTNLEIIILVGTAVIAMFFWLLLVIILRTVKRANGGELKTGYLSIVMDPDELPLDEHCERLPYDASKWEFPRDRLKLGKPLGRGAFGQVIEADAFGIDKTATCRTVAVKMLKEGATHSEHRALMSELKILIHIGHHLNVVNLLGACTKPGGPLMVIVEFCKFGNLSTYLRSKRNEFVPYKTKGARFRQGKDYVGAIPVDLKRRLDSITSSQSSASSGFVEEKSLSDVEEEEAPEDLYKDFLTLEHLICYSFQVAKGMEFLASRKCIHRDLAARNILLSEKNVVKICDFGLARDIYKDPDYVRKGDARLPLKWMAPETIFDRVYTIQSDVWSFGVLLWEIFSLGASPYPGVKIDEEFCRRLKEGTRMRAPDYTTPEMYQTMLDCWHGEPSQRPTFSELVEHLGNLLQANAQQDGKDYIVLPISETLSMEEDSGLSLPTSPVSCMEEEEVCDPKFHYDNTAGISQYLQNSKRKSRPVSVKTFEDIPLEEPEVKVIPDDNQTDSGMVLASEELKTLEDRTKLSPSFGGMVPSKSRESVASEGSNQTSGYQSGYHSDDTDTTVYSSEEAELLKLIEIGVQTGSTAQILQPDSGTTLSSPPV

[10] = target: T1, VEGFR-2; assay: VEGFR-2 Western blot in HCT116; type: cell-based; conditions: for VEGFR2 HCT116 % Inhibition: Western blot at MTT-IC50; for VEGFR2 HCT116 RQ (relative quantification): Western blot at MTT-IC50, control RQ 3.817
[11] = target: T2, EGFR (Homo sapiens, UniProt P00533); assay: EGFR Western blot in MCF7; type: cell-based; conditions: for EGFR MCF7 % Inhibition: Western blot at MTT-IC50; for EGFR MCF7 RQ (relative quantification): Western blot at MTT-IC50, control RQ 4.226
T2 sequence (P00533 25-1210): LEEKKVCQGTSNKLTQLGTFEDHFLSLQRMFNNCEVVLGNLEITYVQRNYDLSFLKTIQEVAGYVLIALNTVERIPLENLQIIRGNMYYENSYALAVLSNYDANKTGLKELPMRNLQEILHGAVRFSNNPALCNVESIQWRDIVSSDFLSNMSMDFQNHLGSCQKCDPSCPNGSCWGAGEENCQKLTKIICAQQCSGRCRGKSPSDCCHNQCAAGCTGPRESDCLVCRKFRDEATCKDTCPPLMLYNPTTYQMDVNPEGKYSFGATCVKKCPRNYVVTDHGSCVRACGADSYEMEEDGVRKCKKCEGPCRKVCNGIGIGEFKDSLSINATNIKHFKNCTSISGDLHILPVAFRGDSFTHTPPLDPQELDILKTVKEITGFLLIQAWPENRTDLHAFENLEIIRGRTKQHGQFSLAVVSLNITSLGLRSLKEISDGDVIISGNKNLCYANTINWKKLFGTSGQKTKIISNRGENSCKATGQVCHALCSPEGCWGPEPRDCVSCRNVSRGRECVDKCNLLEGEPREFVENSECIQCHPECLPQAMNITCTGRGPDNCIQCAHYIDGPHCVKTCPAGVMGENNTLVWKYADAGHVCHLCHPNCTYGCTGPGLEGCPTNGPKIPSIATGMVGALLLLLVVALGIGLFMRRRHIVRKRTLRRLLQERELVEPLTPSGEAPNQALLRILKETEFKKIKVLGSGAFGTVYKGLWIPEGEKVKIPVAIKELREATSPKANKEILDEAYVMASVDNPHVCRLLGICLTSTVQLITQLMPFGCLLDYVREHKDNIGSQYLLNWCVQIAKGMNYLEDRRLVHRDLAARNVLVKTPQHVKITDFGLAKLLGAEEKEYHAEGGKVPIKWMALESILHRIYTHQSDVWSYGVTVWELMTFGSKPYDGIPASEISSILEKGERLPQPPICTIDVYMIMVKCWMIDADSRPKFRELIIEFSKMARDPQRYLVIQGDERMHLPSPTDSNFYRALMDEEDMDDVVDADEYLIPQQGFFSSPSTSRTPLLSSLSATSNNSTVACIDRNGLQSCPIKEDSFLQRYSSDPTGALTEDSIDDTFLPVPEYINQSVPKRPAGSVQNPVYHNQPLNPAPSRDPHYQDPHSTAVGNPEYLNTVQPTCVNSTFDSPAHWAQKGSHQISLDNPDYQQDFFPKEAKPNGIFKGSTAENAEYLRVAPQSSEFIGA

[12] = target: T2, EGFR; assay: EGFR Western blot in HCT116; type: cell-based; conditions: for EGFR HCT116 % Inhibition: Western blot at MTT-IC50; for EGFR HCT116 RQ (relative quantification): Western blot at MTT-IC50, control RQ 4.0382
[13] = target: T3, COX-1 (Ovis aries, UniProt P05979); assay: COX-1 inhibitor screening kit; type: biochemical
T3 sequence (P05979 25-600): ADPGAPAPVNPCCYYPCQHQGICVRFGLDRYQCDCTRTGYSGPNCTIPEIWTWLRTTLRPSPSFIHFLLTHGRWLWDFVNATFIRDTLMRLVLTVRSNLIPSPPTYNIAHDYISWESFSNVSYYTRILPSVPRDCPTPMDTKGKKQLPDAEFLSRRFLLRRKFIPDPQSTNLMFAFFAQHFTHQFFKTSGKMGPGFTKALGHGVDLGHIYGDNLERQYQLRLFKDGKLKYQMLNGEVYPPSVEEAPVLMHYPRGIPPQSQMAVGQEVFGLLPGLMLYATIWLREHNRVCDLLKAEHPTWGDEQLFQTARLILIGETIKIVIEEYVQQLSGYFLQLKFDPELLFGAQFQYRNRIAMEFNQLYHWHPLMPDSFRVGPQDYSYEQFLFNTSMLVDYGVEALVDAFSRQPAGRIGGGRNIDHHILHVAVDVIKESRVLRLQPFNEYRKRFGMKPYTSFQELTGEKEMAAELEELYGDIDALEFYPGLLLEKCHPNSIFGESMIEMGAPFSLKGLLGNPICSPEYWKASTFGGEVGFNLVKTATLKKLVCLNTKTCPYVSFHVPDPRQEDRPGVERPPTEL

[14] = target: T4, COX-2 (Homo sapiens, UniProt P35354); assay: COX-2 inhibitor screening kit; type: biochemical
T4 sequence (P35354 18-604): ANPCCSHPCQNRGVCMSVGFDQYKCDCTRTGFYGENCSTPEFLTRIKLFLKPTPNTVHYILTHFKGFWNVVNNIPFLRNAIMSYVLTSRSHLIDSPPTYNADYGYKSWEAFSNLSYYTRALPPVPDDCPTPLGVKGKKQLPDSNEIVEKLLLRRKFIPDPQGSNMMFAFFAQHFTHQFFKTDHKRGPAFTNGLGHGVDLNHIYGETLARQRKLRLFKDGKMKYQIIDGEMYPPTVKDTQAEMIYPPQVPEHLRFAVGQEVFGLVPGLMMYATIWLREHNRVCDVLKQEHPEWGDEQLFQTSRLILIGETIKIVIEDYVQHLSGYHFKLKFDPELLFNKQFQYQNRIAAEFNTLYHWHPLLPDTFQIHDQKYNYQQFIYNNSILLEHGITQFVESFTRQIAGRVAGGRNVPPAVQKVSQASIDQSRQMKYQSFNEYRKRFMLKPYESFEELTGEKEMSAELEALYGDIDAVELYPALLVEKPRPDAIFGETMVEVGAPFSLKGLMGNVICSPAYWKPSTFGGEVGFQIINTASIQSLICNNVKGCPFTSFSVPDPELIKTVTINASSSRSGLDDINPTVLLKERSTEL

[15] = tested on: SARS-CoV-2 (hCoV-19/Egypt/NRC-03/2020); conditions: SARS-CoV-2 / VERO-E6

Row | Structure (SMILES) | IC50 [3] | SI (selectivity index), A431 [3] | IC50 [4] | SI (selectivity index), MCF7 [4] | IC50 [5] | SI (selectivity index), HCT116 [5] | IC50 [6] | phase of cell cycle arrest [7] | DNA content (%) G0-G1 [7] | DNA content (%) G2/M [7] | DNA content (%) Pre-G1 [7] | DNA content (%) S [7] | Apoptosis (%) Early [8] | Apoptosis (%) Total [8] | Necrosis (%) [8] | VEGFR2 MCF7 % Inhibition [9] | VEGFR2 MCF7 RQ (relative quantification) [9] | VEGFR2 HCT116 % Inhibition [10] | VEGFR2 HCT116 RQ (relative quantification) [10] | EGFR MCF7 % Inhibition [11] | other results
1 | COc1cc(/C=C/C(=O)CC(=O)/C=C/c2ccc(O)c(OC)c2)ccc1O [Cur, curcumin] |  |  |  |  |  |  |  |  |  |  |  |  |  |  |  |  |  |  |  |  | IC50 [1]: 16 ± 2.04 µM; IC50 [2]: 38.2 ± 2.36 µM
2 | CC(=O)Oc1ccccc1C(=O)N1C/C(=C\c2ccc(Cl)cc2)C(=O)/C(=C/c2ccc(Cl)cc2)C1 [Compound 5c, 2-[3,5-Bis((E)-4-chlorobenzylidene)-4-oxopiperidine-1-carbonyl]phenyl acetate] | 1.21 ± 0.11 µM | 7.3 | 2.81 ± 0.26 µM | 3.15 | 0.986 ± 0.08 µM | 8.96 | 8.83 ± 0.68 µM | G1-phase | 55.28% | 3.59% | 44.28% | 41.13% | 2.29% | 44.28% | 13.41% | 59.5% | 1.51 | 73.3% | 1.02 | 85.6% | Apoptosis (%) Late [8]: 28.58%; EGFR MCF7 RQ (relative quantification) [11]: 0.61; EGFR HCT116 % Inhibition [12]: 62.9%; EGFR HCT116 RQ (relative quantification) [12]: 1.5; IC50 [13]: 0.271 µM; IC50 [14]: 2.25 µM; SI = IC50(COX-1)/IC50(COX-2) [14]: 0.121; SI = CC50/IC50 [15]: 1.7
3 | COc1cc(/C=C2\CN(C(=O)c3cc(Cl)ccc3OC(C)=O)C/C(=C\c3cc(OC)c(OC)c(OC)c3)C2=O)cc(OC)c1OC [Compound 5o, 4-Chloro-2-(4-oxo-3,5-bis((E)-3,4,5-trimethoxybenzylidene)piperidine-1-carbonyl)phenyl acetate] | 0.431 ± 0.03 µM | 16.3 | 2.65 ± 0.22 µM | 2.65 | 0.75 ± 0.06 µM | 9.36 | 7.02 ± 0.45 µM | S-phase | 42.75% | 4.14% | 35.75% | 53.11% | 1.72% | 35.75% | 9.44% | 63.0% | 1.38 | 69.6% | 1.16 | 69.2% | EGFR MCF7 RQ (relative quantification) [11]: 1.3; EGFR HCT116 % Inhibition [12]: 68.2%; EGFR HCT116 RQ (relative quantification) [12]: 1.283; IC50 [13]: 0.193 µM; IC50 [14]: 1.6 µM; SI = IC50(COX-1)/IC50(COX-2) [14]: 0.121; SI = CC50/IC50 [15]: 34.0
